Data set [1] can be described thus: Skin spread factor (product spread on forearm circle, 15 minutes, FD&C Blue No. 1 staining). It is filed as in vivo. Particulars: resulting area divided by initial area after fifteen minute spread; FIG. 1A. The procedure: The skin spread factor is determined by applying, for example, 5 microliters of a product to a 3.14 cm diameter circle on the volar surface of the forearm. The product is spread evenly within the circle and allowed to spread for a fifteen minute period. The test site and surrounding area of the forearm is then sprayed with a 1 percent solution of FD&C Blue No. 1. The area not stained by the blue dye indicates the area onto which the product spread. The skin spread factor is obtained by dividing the resulting area by the initial area. In accordance with the present invention, formulations have a skin spread factor of less than about 8, preferably less than about 5.

Data set [2] is described as follows: Pigment wetting: viscosity of ester/pigment slurry. The class given is physicochemical. To be noted: for viscosity (pigment wetting): FIG. 1B, dye slurry, 65% ester, 35% pigment, after standing five minutes. The procedure:
Pigment wetting properties are determined by preparing a dye slurry and measuring viscosity. For example, a slurry can be prepared using an alkoxylated fatty alcohol dicarboxylic acid ester of the present invention mixed with 35 percent mica or any dye. The viscosity of the slurry is determined after allowing the slurry to stand for five minutes. The lower the viscosity, the better the pigment wetting properties of the ester. Desirably, in accordance with the present invention, viscosity of the resulting dye slurry will be below about 20,000 cps, preferably between about 500 and 15,000 cps and most preferably between about 500 and 5,000 cps based on a 65% ester, 35% pigment mixture (measured in weight percent). Viscosity will vary if a different testing mixture is used.

The results in this text go back to US6476254B1, “Alkoxylated fatty alcohol dicarboxylic acid esters” (Croda Inc., priority 1998, dated 2002).

Take `CCCCCCCC/C=C\CCCCCCCCCCCC(=O)OCCCCCCCCCCCCCCCCCCCCCCCC` [LGE, Lignoceryl Erucate]: the skin spread factor result in data set [1] is “relatively low”. Besides, in data set [2], the “viscosity (pigment wetting)” value is on record as > 15,000 cps.
For Pentaerythrityl Tetraisostearate [PTIS] the same measures were “very low” and ~20,000 cps.
In turn, Bis (PPG2, PEG10 Myristyl) adipate returned a skin spread factor in data set [1] of 2.9. In data set [2] (test mixture not stated at this place), the viscosity was 18,000 cps.
For the compound Di-PPG-3 Myristyl Ether Adipate [DP3A], the skin spread factor result in data set [1] is recorded as “about 3.8”. Besides, in data set [2], the “viscosity (pigment wetting)” value is “about 1200 cps”.
Take `CCCCCCCCCCCCCOC(=O)C(C)(C)C` [TDNP, Tridecyl Neopentanoate]: in data set [1], the skin spread factor result is recorded as “very high”. Moreover, the “viscosity (pigment wetting)” value in data set [2] is listed as “under 1000 cps”.
